Source: patent US9103820B2 (priority 2004, dated 2015)
pKd: −log10 of the molar value. Positions of bridges follow the written chain, without caps; N, C: chain ends. Non-standard residues stand in square brackets, D forms with d. Chains are numbered I, II in the order given. No end group written: not given here. ξ: configuration not given here. ξK = NCCCCC(N)C(=O)O; Ahx = NCCCCCC(=O)O

What was measured:
STX = conditions: read-out: affinity (Kd) for STX; cited from earlier work
[1] = biological target: His-tagged Stx 2B-subunit (Escherichia phage 933W, UniProt P09386); assay: biochemical; type: binding, Escherichia coli O157:H7
Chain of His-tagged Stx 2B-subunit (P09386 20-89 limits assumed): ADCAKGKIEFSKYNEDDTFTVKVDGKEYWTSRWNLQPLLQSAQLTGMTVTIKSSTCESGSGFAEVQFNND

Substance: Galα(1-4)-Galβ(1-4)-G1cβ1- [globo3 sugar]
- pKd (STX): 3.00

Substance: I: MAFRRNRRNA[Ahx][ξK][ξK] / II: MAFRRNRRNA[Ahx][ξK] / III: MAFRRNRRNA[Ahx] / IV: MAFRRNRRNA[Ahx] (amide I:12-IV:C, I:13-II:C, II:12-III:C) [FRRNRRN]
- pKd [1]: 5.77

Substance: I: MAKRRNPRRA[Ahx][ξK][ξK] / II: MAKRRNPRRA[Ahx][ξK] / III: MAKRRNPRRA[Ahx] / IV: MAKRRNPRRA[Ahx] (amide I:12-IV:C, I:13-II:C, II:12-III:C) [KRRNPRR]
- pKd [1]: 5.68

Substance: I: MAPPPRRRRA[Ahx][ξK][ξK] / II: MAPPPRRRRA[Ahx][ξK] / III: MAPPPRRRRA[Ahx] / IV: MAPPPRRRRA[Ahx] (amide I:12-IV:C, I:13-II:C, II:12-III:C) [PPPRRRR]
- pKd [1]: 5.49

Substance: I: MAPPRRNRRA[Ahx][ξK][ξK] / II: MAPPRRNRRA[Ahx][ξK] / III: MAPPRRNRRA[Ahx] / IV: MAPPRRNRRA[Ahx] (amide I:12-IV:C, I:13-II:C, II:12-III:C) [PPRRNRR]
- pKd [1]: 5.57
